Here are results for one molecule from patent US20230357272A1, “OCTAHYDROPYRAZINODIAZANAPHTHYRIDINE DIONE COMPOUNDS” (MEDSHINE DISCOVERY INC., priority 2020, published 2023).

One assay deals with NCI-H358 cells. The assay can be described thus: Anti-proliferation experiment of H358 cells (CellTiter-Glo). The assay is classed as cell-based. Particulars: Homo sapiens, 120 h, 5 days. The method, then: RPMI-1640 culture medium, penicillin/streptomycin antibiotics purchased from Wisent, and fetal bovine serum purchased from Biosera. CellTiter-Glo (chemiluminescence detection reagent for cell viability) reagent purchased from Promega. NCI-H358 cell line purchased from the Cell Bank of the Chinese Academy of Sciences. Nivo multi-label analyzer (PerkinElmer).
NCI-H358 cells were seeded in a white 96-well plate with 80 μL of cell suspension per well, which contained 4000 NCI-H358 cells. The cell plate was incubated overnight in a carbon dioxide incubator.
(§1) The compounds to be tested were diluted 3-fold with a row gun to the ninth concentration, that is, from 2 mM to 304 nM, and a double-duplication experiment was set up. 78 μL of culture medium was added to a middle plate, and then 2 μL of gradient diluted compound per well was transferred to the middle plate according to the corresponding position. After being thoroughly mixed, 20 μL per well was transferred to the cell plate. The concentration range of the compound transferred to the cell plate was 10 μM to 1.52 nM. The cell plate was placed in the carbon dioxide incubator for 5 days. Another cell plate was prepared, and the signal value was read as the maximum value (Max value in the equation below) on the day of administration to participate in data analysis. 25 μL of cell viability chemiluminescence detection reagent was added to each well of the cell plate, and incubated at room temperature for 10 minutes to stabilize the luminescence signal. A multi-label analyzer was used for reading.
25 μL of cell viability chemiluminescence detection reagent was added to each well of the cell plate, and incubated at room temperature for 10 minutes to stabilize the luminescence signal. A multi-label analyzer was used for reading.
Using the equation (Sample−Min)/(Max−Min)*100% to convert the raw data into inhibition rate, and the value of IC50 might be obtained by curve fitting with four parameters (obtained by “log (inhibitor) vs. response—Variable slope” mode in GraphPad Prism). Table 1 provides the inhibitory activity of the compounds of the present disclosure on the proliferation of NCI-H358 cells.
For orientation: In ATP-based viability assays light output follows the ATP content of the culture.

Another assay concerns MIA-PA-CA-2 cells. Description: Anti-proliferation experiment of MIA-PA-CA-2 cells (CellTiter-Glo). The class given is cell-based. The following applies: Homo sapiens, MIA PaCa-2, 72 h, 3 days. The method, then: DMEM culture medium, fetal bovine serum purchased from Biosera, and horse serum purchased from Gibco. CellTiter-Glo (chemiluminescence detection reagent for cell viability) reagent purchased from Promega. MIA-PA-CA-2 cell line purchased from Nanjing CoBioer Biotechnology Co., Ltd. EnVision multi-label analyzer (PerkinElmer).
MIA-PA-CA-2 cells were seeded in a white 96-well plate with 80 μL of cell suspension per well, which contained 1000 MIA-PA-CA-2 cells. The cell plate was incubated overnight in a carbon dioxide incubator.
as §1, with “diluted 5-fold” for “diluted 3-fold”, “the eighth” for “the ninth”, “to 26” for “to 304”, “to 0.13” for “to 1.52”, “for 3” for “for 5”
Using the equation (Sample−Min)/(Max−Min)*100% to convert the raw data into inhibition rate, and the value of IC50 might be obtained by curve fitting with four parameters (obtained by “log (inhibitor)/response—Variable scope” mode in GraphPad Prism software). Table 2 provides the inhibitory activity of the compounds of the present disclosure on the proliferation of MIA-PA-CA-2 cells.

For assay [1], the system named is H358 human non-small cell lung cancer cell line. The assay can be described thus: Anti-tumor activity test on in vivo H358 xenograft tumor model. Also on record: species or system Female Balb/c nude mice. The following applies: for T/C / TGI: 28 days; for mean tumor volume: 28 days after administration. From the text:
Human non-small cell lung cancer H358 was used to investigate the tumor-inhibitory effect of the compound to be tested alone in an in vivo tumor model.
Female Balb/c nude mice were subcutaneously inoculated with the H358 human non-small cell lung cancer cell line, randomly grouped on the 6th day after inoculation according to tumor size and animal body weight, and administered as described below.
Vehicle control group: The administration was started in the afternoon of the grouping day, once a day, and the vehicle (10% DMSO/60% PEG400/30% deionized water) was intragastrically administered at a dose of 0.1 mL/10 g body weight for 28 consecutive days.
Administration group: The administration was started in the afternoon of the grouping day, once a day, and 3 groups were intragastrically administered with compound 1D (10% DMSO/60% PEG400/30% deionized water) at the doses of 1 mg/kg, 3 mg/kg and 10 mg/kg body weight, respectively, for 28 consecutive days.
During the experiment, the mice were weighed twice a week, and the tumor volume was measured (tumor volume was calculated according to the formula of length×width^2/2). The tumor inhibition rate TGI (%) was calculated according to the formula TGI (%)=[(1−mean tumor volume at the end of administration of a treatment group−mean tumor volume at the time of group administration of the treatment group)/(mean tumor volume at the end of treatment of vehicle control group−mean tumor volume at the time of group administration of vehicle control group)]×100%.
The relative tumor volume was calculated as RTV=TVn/TV1×100%
Where TV1 was the tumor volume on the day of group administration, and TVn was the tumor volume on the day of measurement.
Relative tumor proliferation rate (T/C %)=RTVt/RTVc×100%
Where RTVt was the mean relative tumor volume of the treatment group, and RTVc was the mean relative tumor volume of the vehicle control group.

Setting [2] is: 1 mg/kg intragastric once a day.
The mark [3] stands for this setting: 3 mg/kg intragastric once a day.
Where [4] appears, read: 10 mg/kg intragastric once a day.

pIC50: −log10 of the molar value.

Regarding `C=CC(=O)N1CCN2c3c(c(=O)n(-c4c(C)ccnc4C(C)C)c4c(=O)n(-c5c(N)c(Cl)cc(Cl)c5F)c(C(F)(F)F)cc34)OCC[C@H]2C1` [Compound 1D], the negative-log IC50 (pIC50) with NCI-H358 cells is 9.04; in the assay with MIA-PA-CA-2 cells, 8.10. For the same molecule, the figures for the T/C in assay [1] (setting [2]), in assay [1] (setting [3]) and in assay [1] (setting [4]) were 51.35%, 27.59% and 5.76%, respectively. In addition, the TGI in assay [1] (setting [2]) was found to be 58.78%; in assay [1] (setting [3]) it was 84.17%; in assay [1] (setting [4]), 113.19%. For the same molecule, the mean tumor volume in assay [1] (setting [2]) is given as 341.36 mm^3; in assay [1] (setting [3]) it was 199.4 mm^3; in assay [1] (setting [4]) it was 37.5 mm^3.

As a reminder, the pIC50 is −log10 of the IC50, conventionally taken in molar units. Read a high pIC50 as a small IC50. For orientation: T/C means the result in the treated group divided by that in the control group, in per cent.
